This note sets out measurements from ChEMBL document CHEMBL1143504, “Structure-based design of derivatives of tyropeptin A as the potent and selective inhibitors of mammalian 20S proteasome” (Bioorg Med Chem Lett, 2005).

Where a SMILES comes first, the peptide text is derived from it. [ ]: non-standard residue; d: D form. The star is where a group is joined. ξ: configuration not given here. ξY = NC(Cc1ccc(O)cc1)C(=O)O; Isovaleryl = CC(C)CC(=O)*; Hexanoyl = CCCCCC(=O)*; PhAc = O=C(Cc1ccccc1)* Bounds are passed on as bounds.

Holding throughout (type): functional, subcellular
In test [1] the target is 20S proteasome. As to the kind of experiment: Inhibitory concentration to inhibit the PGPH activity of 20S proteasome prepared from human leukemia HL-60 cells was determined.
The target of test [2] is 20S proteasome. Put plainly: Inhibitory concentration to inhibit trypsin-like activity of 20S proteasome from human leukemia HL-60 cells was determined.
Test [3] concerns the target 20S proteasome. Put plainly: Inhibitory concentration to inhibit chymotrypsin-like activity of 20S proteasome prepared from human leukemia HL-60 cells was determined.

In the case of `CC(C)[C@H](NC(=O)[C@H](Cc1ccc(O)cc1)NC(=O)Cc1ccc2ccccc2c1)C(=O)NC(C=O)Cc1ccc(O)cc1` (stereo partly specified), the IC50 worked out at 4.7 µM against 20S proteasome [1], 0.7 µM on 20S proteasome [2] and 0.014 µM against 20S proteasome [3].

For `CC(C)[C@H](NC(=O)[C@H](Cc1ccc(O)cc1)NC(=O)Cc1cccc2ccccc12)C(=O)NC(C=O)Cc1ccc(O)cc1` (stereo partly specified), the IC50 on 20S proteasome [1] is 4.9 µM; against 20S proteasome [2], 1.2 µM; on 20S proteasome [3], 0.007 µM.

On to `COc1ccc(C[C@@H](C=O)NC(=O)[C@@H](NC(=O)[C@H](Cc2ccc(OC)cc2)NC(=O)CN(C)C)C(C)C)cc1`, for which the IC50 against 20S proteasome [1] was greater than 100 µM; on 20S proteasome [2], 7.8 µM; against 20S proteasome [3] it was 1.2 µM.

As to `COc1ccc(CC(C=O)NC(=O)[C@@H](NC(=O)[C@H](Cc2ccc(O)cc2)NC(=O)Cc2cccc3ccccc23)C(C)C)cc1` (stereo partly specified), the figures for the IC50 against 20S proteasome [1], at 20S proteasome [2] and on 20S proteasome [3] were 38 µM, 6 µM and 0.018 µM, respectively.

Consider `CC(C)[C@H](NC(=O)[C@H](Cc1ccc(O)cc1)NC(=O)CC1CCCCC1)C(=O)NC(C=O)Cc1ccc(O)cc1` (stereo partly specified), for which the half-inhibitory concentration (IC50) was determined as 17 µM at 20S proteasome [1], 3 µM against 20S proteasome [2] and 0.33 µM against 20S proteasome [3].

In the case of `COc1ccc(CC(C=O)NC(=O)[C@@H](NC(=O)[C@H](Cc2ccc(OC)cc2)NC(=O)Cc2cccc3ccccc23)C(C)C)cc1` (stereo partly specified), the IC50 at 20S proteasome [1] was greater than 100 µM; at 20S proteasome [2] it was greater than 100 µM; on 20S proteasome [3], 0.027 µM.

`COc1ccc(C[C@H](NC(=O)Cc2cccc3ccccc23)C(=O)N[C@H](C(=O)NC(C=O)Cc2ccc(O)cc2)C(C)C)cc1` (stereo partly specified): the figures for the IC50 against 20S proteasome [1], against 20S proteasome [2] and against 20S proteasome [3] were 31 µM, 6 µM and 0.02 µM, respectively.

Turning to `CCCCCC(=O)N[C@@H](Cc1ccc(O)cc1)C(=O)N[C@H](C(=O)NC(C=O)Cc1ccc(O)cc1)C(C)C` (stereo partly drawn) (Hexanoyl-Tyr-Val-[ξY]-aldehyde), the IC50 at 20S proteasome [1] was found to be 20 µM; against 20S proteasome [2], 2 µM; against 20S proteasome [3], 0.037 µM.

In the case of `COc1ccc(CC(C=O)NC(=O)[C@@H](NC(=O)[C@H](Cc2ccc(OC)cc2)NC(=O)CC(C)C)C(C)C)cc1` (stereo partly specified) (Isovaleryl-Tyr(Me)-Val-[ξY](Me)-aldehyde), the IC50 at 20S proteasome [1] worked out at 56 µM; on 20S proteasome [2] it was 37 µM; against 20S proteasome [3] it was 0.12 µM.

As to `COc1ccc(CC(C=O)NC(=O)[C@@H](NC(=O)[C@H](Cc2ccc(O)cc2)NC(=O)CC(C)C)C(C)C)cc1` (stereo partly drawn) (Isovaleryl-Tyr-Val-[ξY](Me)-aldehyde), the values for the IC50 against 20S proteasome [1], against 20S proteasome [2] and at 20S proteasome [3] were 21 µM, 21 µM and 0.19 µM, respectively.

Take `CC(C)[C@H](NC(=O)[C@H](Cc1ccc(O)cc1)NC(=O)Cc1ccccc1)C(=O)NC(C=O)Cc1ccc(O)cc1` (stereo partly drawn) (PhAc-Tyr-Val-[ξY]-aldehyde): the IC50 on 20S proteasome [1] is 16 µM; on 20S proteasome [2], 2 µM; at 20S proteasome [3], 0.027 µM.

For the compound `CC(C)CC(=O)N[C@@H](Cc1ccc(O)cc1)C(=O)N[C@H](C(=O)NC(C=O)Cc1ccc(O)cc1)C(C)C` (stereo partly drawn) [TYROPEPTIN A] (Isovaleryl-Tyr-Val-[ξY]-aldehyde), the IC50 against 20S proteasome [1] was determined as 68 µM; at 20S proteasome [2] it was 5 µM; on 20S proteasome [3], 0.14 µM.
